One test deals with human sperm motility. As to the kind of experiment: Sperm motility assessment by CASA after PDEi treatment (screening of 43 PDEi). The test is classed as cell-based. The conditions noted are these: for Effect on Sperm Motility: Mild / Effect on Sperm Motility: Strong: X or (X) marks the class, PDEi tested blinded at 1, 10 and 100 μM, 20 min at 37° C., CASA. As for the experimental part: Almost all phosphodiesterase inhibitors (PDEi) were purchased from Tocris Bioscience (Bristol, UK) and the other inhibitors from Sigma-Aldrich (Dorset, UK) or Santa Cruz Biotechnology (Heidelberg, Germany) by the Drug Discovery Unit (DDU) at the College Life Sciences (University of Dundee, UK) as shown in Table 1. The DDU coded the PDEi upon arrival and the coded samples were tested for sperm function with a primary focus on sperm motility. All 43 PDEi were analyzed blinded with three independent times for quantitative sperm motility using three different final concentrations (1, 10 and 100 μM).
All chemicals were purchased from Sigma-Aldrich. Two different media were used 1-medium not supporting sperm capacitation NCM: 1.8 mM CaCl2, 5.4 mM KCl, 0.8 mM MgSO4.7H2O, 116.3 mM NaCl, 1.0 mM NaH2PO4, 5.55 mM D-glucose, 2.73 mM sodium pyruvate, 41.75 mM sodium lactate, 25 mM HEPES and 2-supporting capacitation CM: 1.8 mM CaCl2, 5.4 mM KCl, 0.8 mM MgSO4.7H2O, 116.3 mM NaCl, 1.0 mM NaH2PO4, 5.55 mM D-glucose, 2.73 mM sodium pyruvate, 25 mM sodium lactate, 26 mM sodium bicarbonate. Semen samples were obtained from healthy donors (normozoospermic) and samples were produced by masturbation into a sterile plastic container after 2-3 days of sexual abstinence. Two different sperm populations were isolated from the semen using a 40-80% discontinuous density gradient procedure. Briefly, 1 ml of semen was loaded after 30 min of liquefaction at 37° C. on the top of a colloidal silica suspension (Pure Sperm™, Nidacon, Mölndal, Sweden) made of 80% and 40% layered (2 ml each). The density gradient was centrifuged at 300×g for 20 min at room temperature. The motile population was found at the bottom of the 80% fraction and the poor motility population was recovered at the interface of 40-80%, respectively called 80% and 40% fraction. Both fractions were washed using a NCM, cells were isolated by a centrifugation for 5 min at 500×g and the sperm pellet was rediluted using a NCM or CM at ˜20-25×10^6 cells/ml. Sperm cells from 3-4 different donors were pooled together after sperm preparation in order to obtain enough cells to screen 4-5 PDEi at the same time and additionally to reduced the variability. The first screening was performed with a NCM because it is the conditions normally used in clinic for intrauterine insemination (IUI). Accordingly, NCM is recommended to prevent capacitation before IUI (Björndahl et al., 2010)
Following isolation, sperm were mixed with DMSO (vehicle; 1% final concentration) or PDEi [all inhibitors were reconstituted into 1% DMSO]. Sperm cells were incubated for 20 min at 37° C. and the sperm motility was evaluated by using a Computer-Assisted-Sperm-Analysis (CASA, Ceros system [version 12]; Hamilton Thorne, Beverly, Mass.) and 4 chamber slides […] (Vitrolife, Sweden). Sperm motility was evaluated from 4 samples per treatment and at least 2,000 sperm cells were analyzed in total (see below). The setting of the CASA used was that established by the manufacturer for human spermatozoa.

For test [1], the system named is poor sperm motility population. The test can be described thus: Sperm penetration assay in 1% methyl cellulose. The test is classed as cell-based, human. To be noted: PDEi 100 μM, 20 minutes, scored at 1 cm distance, n=6 (FIG. 4). The procedure: Methyl cellulose (1% concentration) was used to mimic cervical mucus viscosity and act as a sperm function test (Ivic et al., 2002). Sperm cells were previously treated with PDEi as described above. Glass tubes (5 cm×0.8 cm×2 mm; Vitrocom, NJ, USA) were loaded with methyl cellulose by capillary action (4,000 Sigma M-) prepared in NCM and one extremity was sealed with Cristaseal™ (Hawksley, Sussex, UK). The tubes was incubated with the sperm cells at 37° C. for 1 h 15 min, then the other extremity of the tube was sealed and the number of sperm cells scored at 1 cm and 2 cm using the CASA equipped with a 20× objective magnification. The microscope was adjusted to get the right focus manually at all planes to get the sum of the sperm migrated at this distance. The results are expressed as a penetration index calculated as the number of spermatozoa observed at the site of counting with treatment/the number of spermatozoa without treatment. The speed of sperm population at the migration distance was also analyzed.

We go through 9 compounds from patent US20150231149A1, “SPERM FUNCTION/ACTIVITY” (University of Dundee, priority 2011, published 2015).

The structures appear in SMILES notation. Structures can show the parent of a compound that is named as a salt.

As to `Cc1ccc([N+](=O)[O-])cc1S(=O)(=O)N(C)C` [BRL 50481], the “Effect on Sperm Motility: Mild” value with human sperm motility was “(X)”. `Cl.Cl.Nc1nc(-c2ccc(Cl)c(Cl)c2)c(-c2ccncc2)s1` [CGH 2466 dihydrochloride]: in the test with human sperm motility, the “Effect on Sperm Motility: Mild” value is listed as “(X)”.

Consider `CN(C(=O)CCCOc1ccc2[nH]c(=O)ccc2c1)C1CCCCC1` [Cilostamide], for which the “Effect on Sperm Motility: Strong” value in the test on human sperm motility is given as “(X)”. In the case of `CCCCCC[C@@H]([C@@H](C)O)n1cnc2c(N)ncnc21.Cl` [EHNA hydrochloride], in the test on human sperm motility, the “Effect on Sperm Motility: Mild” value is listed as “(X)”. As to `CC(C)C(=O)c1c(C(C)C)nn2ccccc12` [Ibudilast, 2-methyl-1-(2-propan-2-ylpyrazolo[1,5-a]pyridin-3-yl)propan-1-one], the “enhancement of sperm motility in a viscous solution (sperm penetration assay)” value (from here on “enhancement of sperm motility”) in test [1] is “best PDEI's to enhance sperm motility in a viscous solution”. Turning to `COc1ccc(Cc2nccc3cc(OC)c(OC)cc23)cc1OC` [Papaverine], the “effect upon sperm motility” value with human sperm motility is “greater than expected effect upon sperm motility”. The “enhancement of sperm motility” value in test [1] is given as “best PDEI's to enhance sperm motility in a viscous solution”. Regarding `CCC1C(C)=NN=C(c2ccc(OC)c(OC)c2)c2cc(OC)c(OC)cc21` (centres unmarked) [Tofisopam, 1-(3,4-dimethoxyphenyl)-5-ethyl-7,8-dimethoxy-4-methyl-5H-2,3-benzodiazepine], the “effect upon sperm motility” value in the test with human sperm motility is reported as “greater than expected effect upon sperm motility”. Also, the “enhancement of sperm motility” value in test [1] is “best PDEI's to enhance sperm motility in a viscous solution”. Turning to `COc1cc2c(cc1OC)-c1c/c(=N\c3c(C)cc(C)cc3C)n(C)c(=O)n1CC2` [Trequinsin hydrochloride], the “Effect on Sperm Motility: Strong” value in the test on human sperm motility is on record as “(X)”.

As for `CCOC(=O)C1=C[C@]2(CC)CCCN3CCc4c(n1c1ccccc41)[C@@H]32` [Vinpocetine], the “Effect on Sperm Motility: Mild” value in the test on human sperm motility is listed as “(X)”.
